Structures are written as SMILES.

What is called inhibition is the drop in the measured response relative to a control, in per cent.

One experiment has as its system PANC-1 cells. Kind of experiment: Cell viability, Sulforhodamine B assay. The note with it: for inhibition at 30 µM: Homo sapiens, PANC-1, 30 μM compound in combination with TRAIL (10 ηg/mL), read-out: inhibition of cell growth; for effectiveness against cell growth / sensitisation to TRAIL: in combination with TRAIL (10 ηg/mL), FIG. 3A. The experiment is classed as cell-based. The method, then:
Cell viability was measured using Sulforhodamine B assay. The cytotoxic effect of the compounds with GSK3β inhibitory potential was tested against PANC-1 cells. Initially, the PANC-1 cells were seeded in flat bottom 96-well plate (5000 cells/100 μL) in complete medium and cultured for 18 hrs under standard conditions. After 18 h the cells were treated with either the different concentration of compounds, standard drugs or DMSO as solvent control. The final DMSO concentration to cells was maintained <2% in all cytotoxic assays. Each compound was tested in triplicate and the cytotoxicity was determined as the average of that triplicate. Further, the plates were incubated for another 48 h in an incubator maintained at 37° C. with a constant supply of 5% CO2. The cells were fixed using 10% TCA and incubated for 1 h at 4° C. Then the plates were rinsed carefully with MQ water and air dried at room temperature. To all the wells of MTP plate 0.057% SRB solution was added and kept for approximately 30 min before it was rinsed off using 1% acetic acid. The plates were then air dried and 100 μL of 10 mM tris base was added to each well to solubilize the SRB before absorbance was measured at 510 nm. The measure of absorbance is directly proportional to cell growth and is thus used to calculate % reduction in the rate of cell proliferation according to control DMSO treated cells. All experiments were performed in triplicates; mean % age proliferation values with ±SD were plotted here.
Background: The SRB assay estimates cell density from bound dye.

The subject of experiment [1] is NF-kB activity in PANC-1 cells. Kind of experiment: NFkB luciferase reporter assay. The following applies: 48 h treatment, dose dependent. The format is cell-based. The method, then: In order to evaluate the effect of GSK3β inhibition on NF-kB activity, a reporter assay has been performed in the presence of identified inhibitors. To perform reporter assays, PANC-1 cells were cultured in a 48 well plate (16000 cells/well) overnight. Following day, cells were transfected with appropriate amount NF-kB reporter construct using lipofectamine 2000 as per manufacturer's protocol. After 16 hrs of post transfection cells were treated with identified GSK3β inhibitors and positive controls. After 48 h of treatment, cells were harvested in directly 1×ccl buffer. For measuring luciferase activity, 5 μl of cell lysate was mixed with 20 μl of assay reagent containing substrate for luciferase in MTP well plate as per manufacturer's protocol. The luciferase activity was determined by measuring luminescence at wavelengths in multimode reader. The protein concentration of the lysates was estimated by Bradford assay to normalize luciferase activity with protein present in the lysates. Then the relative luciferase activity was calculated according to control cells treated with DMSO set to 1. All experiments were performed in triplicates and the mean values with ±SD are presented here.
In general terms: Reporter assays use an easily measured gene product as a stand-in for the process of interest.

As for `COc1ccccc1N1CCN(CC2CC3(CO2)C(=O)Nc2ccccc23)CC1` (stereo not drawn) [AB-U, 5-((4-(2-Methoxyphenyl)piperazin-1-yl)methyl)-4,5-dihydro-2H-spiro[furan-3,3′-indolin]-2′-one], in the experiment with PANC-1 cells, the inhibition at 30 µM was determined as 50% and the “effectiveness against cell growth / sensitisation to TRAIL” value is on record as “more effective”. Besides, in experiment [1], the NFkB luciferase activity result is on record as “significantly decreased”.
For `CCOC(=O)c1ccc(-c2ccccc2OCc2cn(CC3CC4(CO3)C(=O)Nc3ccccc34)nn2)nc1C` (stereo not drawn) [AB-O, Ethyl 2-methyl-6-(2-((1-((2′-oxo-4,5-dihydro-2H-spiro[furan-3,3′-indoline]-5-yl)methyl)-1H-1,2,3-triazol-4-yl)methoxy)phenyl)nicotinate], in the experiment with PANC-1 cells, the inhibition at 30 µM was found to be 50% and the “effectiveness against cell growth / sensitisation to TRAIL” value is “more effective”. In experiment [1], the NFkB luciferase activity result is “significantly decreased”.

The values above are taken from US11306100B2, “Spirooxindole compounds as GSK3B inhibitors and process for preparation thereof” (COUNCIL OF SCIENTIFIC & INDUSTRIAL RESEARCH, priority 2017, dated 2022).
